# ChEMBL document CHEMBL4706583, “2-Anilinoquinoline based arylamides as broad spectrum anticancer agents with B-RAF/C-RAF kinase inhibitory effects: Design, synthesis, in vitro cell-based and oncogenic kinase assessments” (Eur J Med Chem, 2020)
# Tests used:
# [1] = tested on: HL-60(TB); test: Growth inhibition of human HL-60(TB) cells measured after 48 hrs by SRB assay; format: functional
# [2] = tested on: K562; test: Growth inhibition of human K562 cells measured after 48 hrs by SRB assay; format: functional
# [3] = tested on: MOLT-4; test: Growth inhibition of human MOLT-4 cells measured after 48 hrs by SRB assay; format: functional
# [4] = tested on: RPMI-8226; test: Growth inhibition of human RPMI-8226 cells measured after 48 hrs by SRB assay; format: functional
# [5] = tested on: A549; test: Growth inhibition of human A549 cells measured after 48 hrs by SRB assay; format: functional
# [6] = tested on: EKVX; test: Growth inhibition of human EKVX cells measured after 48 hrs by SRB assay; format: functional
# [7] = tested on: HOP-62; test: Growth inhibition of human HOP-62 cells measured after 48 hrs by SRB assay; format: functional
# [8] = tested on: HOP-92; test: Growth inhibition of human HOP-92 cells measured after 48 hrs by SRB assay; format: functional; conditions: for CC50: read-out: LC50 (the source's name)
# [9] = tested on: NCI-H23; test: Growth inhibition of human NCI-H23 cells measured after 48 hrs by SRB assay; format: functional
# [10] = tested on: NCI-H522; test: Growth inhibition of human NCI-H522 cells measured after 48 hrs by SRB assay; format: functional
# [11] = tested on: SF-268; test: Growth inhibition of human SF-268 cells measured after 48 hrs by SRB assay; format: functional
# [12] = tested on: SNB-19; test: Growth inhibition of human SNB-19 cells measured after 48 hrs by SRB assay; format: functional
# [13] = tested on: SNB-75; test: Growth inhibition of human SNB-75 cells measured after 48 hrs by SRB assay; format: functional
# [14] = tested on: U-251; test: Growth inhibition of human U-251 cells measured after 48 hrs by SRB assay; format: functional
# [15] = tested on: LOX IMVI; test: Growth inhibition of human LOX IMVI cells measured after 48 hrs by SRB assay; format: functional; conditions: for CC50: read-out: LC50 (the source's name)
# [16] = tested on: Malme-3M; test: Growth inhibition of human Malme-3M cells measured after 48 hrs by SRB assay; format: functional
# [17] = tested on: MDA-MB-435; test: Growth inhibition of human MDA-MB-435 cells measured after 48 hrs by SRB assay; format: functional
# [18] = tested on: UACC-257; test: Growth inhibition of human UACC-257 cells measured after 48 hrs by SRB assay; format: functional
# [19] = tested on: UACC-62; test: Growth inhibition of human UACC-62 cells measured after 48 hrs by SRB assay; format: functional
# [20] = tested on: IGROV-1; test: Growth inhibition of human IGROV-1 cells measured after 48 hrs by SRB assay; format: functional
# [21] = tested on: OVCAR-5; test: Growth inhibition of human OVCAR-5 cells measured after 48 hrs by SRB assay; format: functional
# [22] = tested on: 786-0; test: Growth inhibition of human 786-0 cells measured after 48 hrs by SRB assay; format: functional
# [23] = tested on: SN12C; test: Growth inhibition of human SN12C cells measured after 48 hrs by SRB assay; format: functional
# [24] = tested on: UO-31; test: Growth inhibition of human UO-31 cells measured after 48 hrs by SRB assay; format: functional
# [25] = tested on: Hs-578T; test: Growth inhibition of human Hs-578T cells measured after 48 hrs by SRB assay; format: functional
# [26] = Cytotoxicity against human L132 cells assessed as cell viability at 1 uM measured after 48 hrs by EZ-Cytox assay relative to control; format: cell-based; conditions: read-out: Activity
# [27] = tested on: HCT-116; test: Cell cycle arrest in human HCT-116 cells assessed as increase in G0/G1-phase accumulation measured after 24 to 48 hrs by propidium iodide staining based flow cytometry; format: functional; conditions: dose 1.25-5 µM, time 24-48 hrs
# [28] = tested on: HCT-116; test: Induction of apoptosis in human HCT-116 cells assessed as early apoptotic cells at 1.25 uM measured after 24 hrs by Annexin-V Alexa Fluor488/propidium iodide staining based flow cytometry (reference value: 6.3%); format: functional
# [29] = tested on: HCT-116; test: Induction of apoptosis in human HCT-116 cells assessed as late apoptotic cells at 1.25 uM measured after 24 hrs by Annexin-V Alexa Fluor488/propidium iodide staining based flow cytometry (reference value: 1%); format: functional
# [30] = tested on: HCT-116; test: Induction of apoptosis in human HCT-116 cells assessed as necrotic cells at 1.25 uM measured after 24 hrs by Annexin-V Alexa Fluor488/propidium iodide staining based flow cytometry (reference value: 4.6%); format: functional
# [31] = tested on: HCT-116; test: Induction of apoptosis in human HCT-116 cells assessed as viable cells at 2.5 uM measured after 24 hrs by Annexin-V Alexa Fluor488/propidium iodide staining based flow cytometry (reference value: 88.1%); format: functional; conditions: read-out: Activity
# [32] = tested on: HCT-116; test: Induction of apoptosis in human HCT-116 cells assessed as early apoptotic cells at 5 uM measured after 24 hrs by Annexin-V Alexa Fluor488/propidium iodide staining based flow cytometry (reference value: 6.3%); format: functional
# [33] = tested on: HCT-116; test: Induction of apoptosis in human HCT-116 cells assessed as necrotic cells at 5 uM measured after 24 hrs by Annexin-V Alexa Fluor488/propidium iodide staining based flow cytometry (reference value: 4.6%); format: functional
# [34] = tested on: HCT-116; test: Induction of apoptosis in human HCT-116 cells assessed as early apoptotic cells at 1.25 uM measured after 48 hrs by Annexin-V Alexa Fluor488/propidium iodide staining based flow cytometry (reference value: 7.7%); format: functional
# [35] = tested on: HCT-116; test: Induction of apoptosis in human HCT-116 cells assessed as late apoptotic cells at 1.25 uM measured after 48 hrs by Annexin-V Alexa Fluor488/propidium iodide staining based flow cytometry (reference value: 2.2%); format: functional
# [36] = tested on: HCT-116; test: Induction of apoptosis in human HCT-116 cells assessed as viable cells at 2.5 uM measured after 48 hrs by Annexin-V Alexa Fluor488/propidium iodide staining based flow cytometry (reference value: 82.3%); format: functional; conditions: read-out: Activity
# [37] = tested on: HCT-116; test: Induction of apoptosis in human HCT-116 cells assessed as early apoptotic cells at 2.5 uM measured after 48 hrs by Annexin-V Alexa Fluor488/propidium iodide staining based flow cytometry (reference value: 7.7%); format: functional
# [38] = tested on: HCT-116; test: Induction of apoptosis in human HCT-116 cells assessed as necrotic cells at 2.5 uM measured after 48 hrs by Annexin-V Alexa Fluor488/propidium iodide staining based flow cytometry (reference value: 7.7%); format: functional
# [39] = molecular target: RAF proto-oncogene serine/threonine-protein kinase (Homo sapiens, UniProt P04049); test: Inhibition of human CRAF using MEK1 (K97R) as substrate in presence of [gamma-33P]ATP by scintillation counting method
# [40] = molecular target: Serine/threonine-protein kinase B-raf (Homo sapiens, UniProt P15056, V600E); test: Inhibition of human BRAF V600E mutant using MEK1 (K97R) as substrate in presence of [gamma-33P]ATP by scintillation counting method
# [41] = organism: Homo sapiens; test: Selectivity ratio of IC50 for inhibition of human BRAF V600E mutant to IC50 for inhibition of human CRAF
# Chain of RAF proto-oncogene serine/threonine-protein kinase (P04049 whole entry): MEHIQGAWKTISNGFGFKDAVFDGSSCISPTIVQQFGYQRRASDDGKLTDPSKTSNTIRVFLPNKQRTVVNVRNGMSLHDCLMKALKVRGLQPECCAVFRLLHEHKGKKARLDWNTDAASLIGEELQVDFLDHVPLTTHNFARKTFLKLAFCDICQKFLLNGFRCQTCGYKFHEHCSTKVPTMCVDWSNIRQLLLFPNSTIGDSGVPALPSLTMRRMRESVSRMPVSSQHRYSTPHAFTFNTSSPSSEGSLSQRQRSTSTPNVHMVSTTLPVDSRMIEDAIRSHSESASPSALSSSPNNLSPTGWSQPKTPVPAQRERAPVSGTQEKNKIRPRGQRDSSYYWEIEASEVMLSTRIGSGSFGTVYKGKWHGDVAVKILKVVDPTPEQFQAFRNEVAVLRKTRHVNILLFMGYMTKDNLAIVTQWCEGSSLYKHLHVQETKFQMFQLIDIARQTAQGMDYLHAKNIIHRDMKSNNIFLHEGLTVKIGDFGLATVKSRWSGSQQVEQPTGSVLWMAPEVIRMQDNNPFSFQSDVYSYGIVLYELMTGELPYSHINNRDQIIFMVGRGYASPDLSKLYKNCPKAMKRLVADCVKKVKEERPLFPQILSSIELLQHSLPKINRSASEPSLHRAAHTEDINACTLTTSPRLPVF
# Chain of Serine/threonine-protein kinase B-raf (P15056 2-766 V600E limits assumed): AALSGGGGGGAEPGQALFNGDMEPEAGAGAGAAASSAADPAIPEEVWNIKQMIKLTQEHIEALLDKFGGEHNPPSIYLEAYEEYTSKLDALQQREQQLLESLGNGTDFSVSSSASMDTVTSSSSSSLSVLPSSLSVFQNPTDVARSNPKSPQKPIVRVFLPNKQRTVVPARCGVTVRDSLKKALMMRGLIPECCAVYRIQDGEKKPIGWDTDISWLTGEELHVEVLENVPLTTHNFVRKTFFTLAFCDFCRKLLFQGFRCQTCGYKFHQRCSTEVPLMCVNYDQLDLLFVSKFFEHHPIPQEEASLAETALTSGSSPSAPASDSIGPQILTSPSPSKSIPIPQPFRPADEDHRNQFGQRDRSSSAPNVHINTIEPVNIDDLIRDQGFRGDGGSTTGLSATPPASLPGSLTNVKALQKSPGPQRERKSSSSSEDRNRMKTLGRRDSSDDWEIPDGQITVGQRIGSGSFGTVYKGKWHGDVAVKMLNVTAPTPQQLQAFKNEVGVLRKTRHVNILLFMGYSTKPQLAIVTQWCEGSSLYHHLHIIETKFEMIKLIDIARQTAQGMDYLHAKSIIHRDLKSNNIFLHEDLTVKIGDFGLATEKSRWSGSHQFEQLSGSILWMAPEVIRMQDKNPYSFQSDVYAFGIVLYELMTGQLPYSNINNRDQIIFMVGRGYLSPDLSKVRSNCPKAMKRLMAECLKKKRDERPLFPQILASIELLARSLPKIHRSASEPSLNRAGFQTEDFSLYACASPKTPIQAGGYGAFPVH
smiles,measurement,setting,value
COc1cccc2nc(Nc3cccc(NC(=O)c4ccc(N5CCN(C)CC5)c(C(F)(F)F)c4)c3)ccc12,GI50,[1],1070 nM
same,GI50,[2],1100 nM
same,GI50,[3],876 nM
same,GI50,[4],1650 nM
same,LC50 (concentration killing 50% of cells),[4],> 50000 nM
same,TGI,[4],6440 nM
same,GI50,[5],1430 nM
same,GI50,[6],1830 nM
same,GI50,[7],856 nM
same,GI50,[8],854 nM
same,TGI,[8],4030 nM
same,CC50,[8],18800 nM
same,GI50,[9],2930 nM
same,GI50,[10],1040 nM
same,GI50,[11],1500 nM
same,GI50,[12],1110 nM
same,GI50,[13],695 nM
same,GI50,[14],885 nM
same,GI50,[15],873 nM
same,TGI,[15],1570 nM
same,CC50,[15],2830 nM
same,GI50,[16],816 nM
same,LC50 (concentration killing 50% of cells),[16],3200 nM
same,TGI,[16],1620 nM
same,GI50,[17],878 nM
same,GI50,[18],1360 nM
same,GI50,[19],1060 nM
same,GI50,[20],1250 nM
same,LC50,[20],25600 nM
same,TGI,[20],4240 nM
same,GI50,[21],1530 nM
same,GI50,[22],923 nM
same,GI50,[23],1700 nM
same,GI50,[24],734 nM
same,LC50 (concentration killing 50% of cells),[24],3040 nM
same,TGI,[24],1490 nM
same,GI50,[25],1070 nM
same,"viability at 48 h, 1 µM",[26],97%
same,Activity,[27],Dose-dependent effect
same,Activity,[28],4.7%
same,Activity,[29],1.7%
same,Activity,[30],11%
same,viability at 2.5 µM,[31],81.2%
same,Activity,[32],7.9%
same,Activity,[33],4.8%
same,Activity,[34],14%
same,Activity,[35],1.7%
same,viability at 2.5 µM,[36],79.5%
same,Activity,[37],14.3%
same,Activity,[38],4.2%
same,IC50,[39],370 nM
same,IC50,[40],1460 nM
same,Ratio IC50,[41],2
CCN1CCN(c2cc(C(=O)Nc3cccc(Nc4ccc5c(OC)cccc5n4)c3)cc(C(F)(F)F)c2)CC1,GI50,[1],3820 nM
same,GI50,[2],910 nM
same,GI50,[3],616 nM
same,GI50,[4],1200 nM
same,LC50 (concentration killing 50% of cells),[4],15300 nM
same,TGI,[4],5320 nM
same,GI50,[5],1050 nM
same,GI50,[6],3070 nM
same,GI50,[7],1020 nM
same,GI50,[8],1260 nM
same,TGI,[8],4660 nM
same,CC50,[8],16600 nM
same,GI50,[9],3410 nM
same,GI50,[10],1010 nM
same,GI50,[11],1760 nM
same,GI50,[12],2100 nM
same,GI50,[13],1050 nM
same,GI50,[14],1360 nM
same,GI50,[15],780 nM
same,TGI,[15],1960 nM
same,CC50,[15],7040 nM
same,GI50,[16],611 nM
same,LC50 (concentration killing 50% of cells),[16],2880 nM
same,TGI,[16],1330 nM
same,GI50,[17],1160 nM
same,GI50,[18],1020 nM
same,GI50,[19],1500 nM
same,GI50,[20],924 nM
same,LC50,[20],20000 nM
same,TGI,[20],5230 nM
same,GI50,[21],2780 nM
same,GI50,[22],3730 nM
same,GI50,[23],1390 nM
same,GI50,[24],746 nM
same,LC50 (concentration killing 50% of cells),[24],12400 nM
same,TGI,[24],3880 nM
same,GI50,[25],3610 nM
same,"viability at 48 h, 1 µM",[26],91.2%
same,Activity,[27],Dose-dependent effect
same,Activity,[28],12.5%
same,Activity,[29],0.6%
same,Activity,[30],0.4%
same,viability at 2.5 µM,[31],82.9%
same,Activity,[32],19.3%
same,Activity,[33],0.6%
same,Activity,[34],16.6%
same,Activity,[35],0.4%
same,viability at 2.5 µM,[36],78.8%
same,Activity,[37],19%
same,Activity,[38],1.2%
same,IC50,[39],229 nM
same,IC50,[40],888 nM
same,Ratio IC50,[41],2
